Experimental data from patent publication US20070172436A1 (priority 2006, published 2007).

What was measured:
[1] = Solubilization of ascorbic acid in propylene glycol at room temperature, with or without urea; assay type: physicochemical; settings: 7.0% ascorbic acid, 5.0% urea, 88.0% propylene glycol, stirring about 16 hours
Experimental: The solubilization process was carried out at room temperature.
The two sets of experiments (EXAMPLE 5 and EXAMPLE 6) were carried out side by side for comparison.

[2] = Solubilization of ascorbic acid in absolute ethanol at room temperature, with or without urea; settings: 2.00% urea, 95.50% ethanol, stirring about 16 hours
Experimental: The solubilization process was conducted at room temperature.
The mixture was kept at room temperature, while stirring until dissolved. Vitamin E acetate was added to the mixture. Vitamin E acetate was solubilized in the mixture.

[3] = co-pending application Ser. No. 11/242,306; cited from earlier work

dissolution in propylene glycol [1]	dissolution in absolute ethanol [2]	Structure (SMILES)	concentration of dissolved ascorbic acid in nonaqueous alcohol solvents with urea and/or urea derivatives [3] [% by weight]
completely dissolved	completely dissolved	NC(N)=O [urea, Urea]	
		O=C1O[C@H]([C@@H](O)CO)C(O)=C1O [ascorbic acid, L-ascorbic acid]	≤ 28
